{
  "source": "patent US10669242B2",
  "about": "(priority 2016, dated 2020)",
  "note": "Structures can show the parent of a compound that is named as a salt.",
  "data": [
    {"biological_target": "T1, recombinant glucosyltransferase domain of C. difficile Toxin B/TcdB (Clostridioides difficile, UniProt P18177)", "T1 construct": "6-His (C); purchased R&D Systems 6246-GT", "T1 sequence (P18177 1-543)": "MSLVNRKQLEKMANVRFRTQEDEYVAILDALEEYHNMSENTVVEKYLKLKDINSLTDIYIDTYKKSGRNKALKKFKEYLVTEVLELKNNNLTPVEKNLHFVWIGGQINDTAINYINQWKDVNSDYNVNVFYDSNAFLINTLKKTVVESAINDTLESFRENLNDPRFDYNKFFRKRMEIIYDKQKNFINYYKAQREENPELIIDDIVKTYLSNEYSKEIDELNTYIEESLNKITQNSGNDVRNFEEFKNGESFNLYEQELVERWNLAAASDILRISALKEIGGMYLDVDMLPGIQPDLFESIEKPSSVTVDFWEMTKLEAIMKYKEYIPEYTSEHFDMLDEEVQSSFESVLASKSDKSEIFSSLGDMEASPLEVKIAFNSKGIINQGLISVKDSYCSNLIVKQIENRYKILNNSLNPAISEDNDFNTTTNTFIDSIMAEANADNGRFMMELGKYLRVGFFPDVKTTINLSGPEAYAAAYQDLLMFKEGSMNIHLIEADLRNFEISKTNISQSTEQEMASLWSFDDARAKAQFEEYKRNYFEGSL", "test": "biochemical", "units": {"IC50": "nM"}, "values": [
      {"smiles": "O=C(O)c1ccc(CN2C(=O)c3ccc(Cl)cc3NC(=O)[C@H]2Cc2ccccn2)cc1-c1cccnc1", "note": "[Example 8m, (R)-4-((8-chloro-2,5-dioxo-3-(pyridin-2-ylmethyl)-2,3-dihydro-1H-benzo[e][1,4]diazepin-4(5H)-yl)methyl)-2-(pyridin-3-yl)benzoic acid]", "IC50": "1000 to 10000"},
      {"smiles": "CC(=O)Nc1ccc(-c2cc(CN3C(=O)c4ccc(Cl)cc4NC(=O)[C@H]3Cc3ccccn3)ccc2C(=O)O)cc1", "note": "[Example 8n, (R)-4′-acetamido-5-((8-chloro-2,5-dioxo-3-(pyridin-2-ylmethyl)-2,3-dihydro-1H-benzo[e][1,4]diazepin-4(5H)-yl)methyl)-[1,1′-biphenyl]-2-carboxylic acid]", "IC50": "100 to 999"},
      {"smiles": "CNC(=O)c1ccc(-c2cc(CN3C(=O)c4ccc(Cl)cc4NC(=O)[C@H]3Cc3ccccn3)ccc2C(=O)O)cc1", "note": "[Example 8o, (R)-5-((8-chloro-2,5-dioxo-3-(pyridin-2-ylmethyl)-2,3-dihydro-1H-benzo[e][1,4]diazepin-4(5H)-yl)methyl)-4′-(methylcarbamoyl)-[1,1′-biphenyl]-2-carboxylic acid]", "IC50": "1000 to 10000"},
      {"smiles": "CNC(=O)c1cccc(-c2cc(CN3C(=O)c4ccc(Cl)cc4NC(=O)[C@H]3Cc3ccccn3)ccc2C(=O)O)c1", "note": "[Example 8p, (R)-5-((8-chloro-2,5-dioxo-3-(pyridin-2-ylmethyl)-2,3-dihydro-1H-benzo[e][1,4]diazepin-4(5H)-yl)methyl)-3′-(methylcarbamoyl)-[1,1′-biphenyl]-2-carboxylic acid]", "IC50": "100 to 999"},
      {"smiles": "CC(=O)Nc1cccc(-c2cc(CN3C(=O)c4ccc(Cl)cc4NC(=O)[C@H]3Cc3ccccn3)ccc2C(=O)O)c1", "note": "[Example 8q, (R)-3′-acetamido-5-((8-chloro-2,5-dioxo-3-(pyridin-2-ylmethyl)-2,3-dihydro-1H-benzo[e][1,4]diazepin-4(5H)-yl)methyl)-[1,1′-biphenyl]-2-carboxylic acid]", "IC50": "100 to 999"},
      {"smiles": "O=C(O)c1ccc(CN2C(=O)c3ccc(Cl)cc3NC(=O)[C@H]2Cc2ccccn2)cc1-c1cn[nH]c1", "note": "[Example 8r, (R)-4-((8-chloro-2,5-dioxo-3-(pyridin-2-ylmethyl)-2,3-dihydro-1H-benzo[e][1,4]diazepin-4(5H)-yl)methyl)-2-(1H-pyrazol-4-yl)benzoic acid]", "IC50": "100 to 999"},
      {"smiles": "Cn1nccc1-c1cc(CN2C(=O)c3ccc(Cl)cc3NC(=O)[C@H]2Cc2ccccn2)ccc1C(=O)O", "note": "[Example 8s, (R)-4-((8-chloro-2,5-dioxo-3-(pyridin-2-ylmethyl)-2,3-dihydro-1H-benzo[e][1,4]diazepin-4(5H)-yl)methyl)-2-(1-methyl-1H-pyrazol-5-yl)benzoic acid]", "IC50": "1000 to 10000"},
      {"smiles": "Cc1noc(C)c1-c1cc(CN2C(=O)c3ccc(Cl)cc3NC(=O)[C@H]2Cc2ccccn2)ccc1C(=O)O", "note": "[Example 8t, 4-(((R)-8-chloro-2,5-dioxo-3-(pyridin-2-ylmethyl)-2,3-dihydro-1H-benzo[e][1,4]diazepin-4(5H)-yl)methyl)-2-(3,5-dimethylisoxazol-4-yl)benzoic acid]", "IC50": "1000 to 10000"},
      {"smiles": "Cn1cc(-c2cc(CN3C(=O)c4ccc(Cl)cc4NC(=O)[C@H]3Cc3ccccn3)ccc2C(=O)O)cn1", "note": "[Example 8u, (R)-4-((8-chloro-2,5-dioxo-3-(pyridin-2-ylmethyl)-2,3-dihydro-1H-benzo[e][1,4]diazepin-4(5H)-yl)methyl)-2-(1-methyl-1H-pyrazol-4-yl)benzoic acid]", "IC50": "1000 to 10000"},
      {"smiles": "Cc1ccc(NC(=O)c2ccc(CN3C(=O)c4ccc(Cl)cc4NC(=O)[C@H]3CCO)cc2)nc1", "note": "[Example 9a, (R)-4-((8-Chloro-3-(2-hydroxyethyl)-2,5-dioxo-2,3-dihydro-1H-benzo[e][1,4]diazepin-4(5H)-yl)methyl)-N-(5-methylpyridin-2-yl)benzamide]", "IC50": "100 to 999"},
      {"smiles": "Cc1ccc(NC(=O)c2ccc(CN3C(=O)c4ccc(Cl)cc4NC(=O)[C@H]3CCN3CCOCC3)cc2)nc1", "note": "[Example 10a, (R)-4-((8-Chloro-3-(2-morpholinoethyl)-2,5-dioxo-2,3-dihydro-1H-benzo[e][1,4]diazepin-4(5H)-yl)methyl)-N-(5-methylpyridin-2-yl)benzamide]", "IC50": "1000 to 10000"},
      {"smiles": "Cc1ccc(NC(=O)c2ccc(CN3C(=O)c4ccc(Cl)cc4NC(=O)[C@H]3CCN3CCCCC3)cc2)nc1", "note": "[Example 10b, (R)-4-((8-chloro-2,5-dioxo-3-(2-(piperidin-1-yl)ethyl)-2,3-dihydro-1H-benzo[e][1,4]diazepin-4(5H)-yl)methyl)-N-(5-methylpyridin-2-yl)benzamide]", "IC50": "10000 to 35000"},
      {"smiles": "Cc1ccc(NC(=O)c2ccc(CN3C(=O)c4ccc(Cl)cc4NC(=O)[C@H]3CCN3CCC(O)CC3)cc2)nc1", "note": "[Example 10c, (R)-4-((8-chloro-3-(2-(4-hydroxypiperidin-1-yl)ethyl)-2,5-dioxo-2,3-dihydro-1H-benzo[e][1,4]diazepin-4(5H)-yl)methyl)-N-(5-methylpyridin-2-yl)benzamide]", "IC50": "1000 to 10000"},
      {"smiles": "Cc1ccc(NC(=O)c2ccc(CN3C(=O)c4ccc(Cl)cc4NC(=O)[C@H]3CCN3CCN(C)CC3)cc2)nc1", "note": "[Example 10d, (R)-4-((8-chloro-3-(2-(4-methylpiperazin-1-yl)ethyl)-2,5-dioxo-2,3-dihydro-1H-benzo[e][1,4]diazepin-4(5H)-yl)methyl)-N-(5-methylpyridin-2-yl)benzamide]", "IC50": "1000 to 10000"},
      {"smiles": "Cc1ccc(NC(=O)c2ccc(CN3C(=O)c4ccc(Cl)cc4NC(=O)[C@H]3CCN3CCNC(=O)C3)cc2)nc1", "note": "[Example 10e]", "IC50": "1000 to 10000"},
      {"smiles": "Cc1ccc(NC(=O)c2ccc(CN3C(=O)c4ccc(Cl)cc4NC(=O)[C@H]3CCN(C)C)cc2)nc1", "note": "[Example 10f, (R)-4-((8-chloro-3-(2-(dimethylamino)ethyl)-2,5-dioxo-2,3-dihydro-1H-benzo[e][1,4]diazepin-4(5H)-yl)methyl)-N-(5-methylpyridin-2-yl)benzamide]", "IC50": "10000 to 35000"},
      {"smiles": "O=C1Nc2cc(Cl)ccc2C(=O)N(C[C@H]2CC[C@H](C(=O)c3ccccn3)CC2)[C@@H]1Cc1ccccn1", "note": "[Example 11c, (R)-8-chloro-4-((4-picolinoylcyclohexyl)methyl)-3-(pyridin-2-ylmethyl)-3,4-dihydro-1H-benzo[e][1,4]diazepine-2,5-dione]", "IC50": "< 100"},
      {"smiles": "Cc1ccnc(C(=O)c2ccc(CN3C(=O)c4ccc(Cl)cc4NC(=O)[C@H]3Cc3ccccn3)cc2)c1", "note": "[Example 11d, (R)-8-chloro-4-(4-(4-methylpicolinoyl)benzyl)-3-(pyridin-2-ylmethyl)-3,4-dihydro-1H-benzo[e][1,4]diazepine-2,5-dione]", "IC50": "< 100"},
      {"smiles": "Cc1cccc(C(=O)c2ccc(CN3C(=O)c4ccc(Cl)cc4NC(=O)[C@H]3Cc3ccccn3)cc2)n1", "note": "[Example 11e, (R)-8-chloro-4-(4-(6-methylpicolimoyl)benzyl)-3-(pyridin-2-ylmethyl)-3,4-dihydro-1H-benzo[e][1,4]diazepine-2,5-dione]", "IC50": "100 to 999"},
      {"smiles": "O=C(c1ccccn1)c1ccc(CN2C(=O)c3ccc(Cl)cc3NC(=O)[C@H]2Cc2ccccn2)cc1F", "note": "[Example 11f, (R)-8-chloro-4-(3-fluoro-4-picolinoylbenzyl)-3-(pyridin-2-ylmethyl)-3,4-dihydro-1H-benzo[e][1,4]diazepine-2,5-dione]", "IC50": "< 100"},
      {"smiles": "Cc1cc(CN2C(=O)c3ccc(Cl)cc3NC(=O)[C@H]2Cc2ccccn2)ccc1C(=O)c1ccccn1", "note": "[Example 11h, (R)-8-chloro-4-(3-methyl-4-picolinoylbenzyl)-3-(pyridin-2-ylmethyl)-3,4-dihydro-1H-benzo[e][1,4]diazepine-2,5-dione]", "IC50": "< 100"},
      {"smiles": "Cc1cccnc1C(=O)c1ccc(CN2C(=O)c3ccc(Cl)cc3NC(=O)[C@H]2Cc2ccccn2)cc1F", "note": "[Example 11i, (R)-8-chloro-4-(3-fluoro-4-(3-methylpicolinoyl)benzyl)-3-(pyridin-2-ylmethyl)-3,4-dihydro-1H-benzo[e][1,4]diazepine-2,5-dione]", "IC50": "1000 to 10000"},
      {"smiles": "COc1cc(CN2C(=O)c3ccc(Cl)cc3NC(=O)[C@H]2Cc2ccccn2)ccc1C(=O)c1ccccn1", "note": "[Example 11j, (R)-8-chloro-4-(3-methoxy-4-picolinoylbenzyl)-3-(pyridin-2-ylmethyl)-3,4-dihydro-1H-benzo[e][1,4]diazepine-2,5-dione]", "IC50": "< 100"},
      {"smiles": "CC(=O)NC(=O)c1ccc(CN2C(=O)c3ccc(Cl)cc3NC(=O)[C@H]2Cc2ccccn2)cc1", "note": "[Example 12a, (R)—N-Acetyl-4-((8-chloro-2,5-dioxo-3-(pyridin-2-ylmethyl)-2,3-dihydro-1H-benzo[e][1,4]diazepin-4(5H)-yl)methyl)benzamide]", "IC50": "< 100"},
      {"smiles": "O=C1Nc2cc(Cl)ccc2C(=O)N(Cc2ccc(C(=O)N3CCCC3=O)cc2)[C@@H]1Cc1ccccn1", "note": "[Example 12b, (R)-8-chloro-4-(4-(2-oxopyrrolidine-1-carbonyl)benzyl)-3-(pyridin-2-ylmethyl)-3,4-dihydro-1H-benzo[e][1,4]diazepine-2,5-dione]", "IC50": "1000 to 10000"},
      {"smiles": "NC(=O)c1ccc(CN2C(=O)c3ccc(Cl)cc3NC(=O)[C@@H]2Cc2ccc(Cl)c(Cl)c2)cc1", "note": "[Example 13a, (S)-4-((8-Chloro-3-(3,4-dichlorobenzyl)-2,5-dioxo-2,3-dihydro-1H-benzo[e][1,4]diazepin-4(5H)-yl)methyl)benzamide]", "IC50": "10000 to 35000"},
      {"smiles": "CN(C)C(=O)c1ccc(CN2C(=O)c3ccc(Cl)cc3NC(=O)[C@H]2Cc2cccnc2)cc1", "note": "[Example 13b, (R)-4-((8-chloro-2,5-dioxo-3-(pyridin-3-ylmethyl)-2,3-dihydro-1H-benzo[e][1,4]diazepin-4(5H)-yl)methyl)-N,N-dimethylbenzamide]", "IC50": "10000 to 35000"},
      {"smiles": "NC(=O)c1ccc(CN2C(=O)c3ccc(Cl)cc3NC(=O)[C@H]2Cc2cccnc2)cc1", "note": "[Example 13c, (R)-4-((8-chloro-2,5-dioxo-3-(pyridin-3-ylmethyl)-2,3-dihydro-1H-benzo[e][1,4]diazepin-4(5H)-yl)methyl)benzamide]", "IC50": "1000 to 10000"},
      {"smiles": "NC(=O)c1ccc(CN2C(=O)c3ccc(Cl)cc3NC(=O)[C@H]2Cc2ccccn2)cc1", "note": "[Example 13d]", "IC50": "100 to 999"},
      {"smiles": "N#Cc1ccc2c(c1)NC(=O)[C@@H](Cc1cccnc1)N(Cc1ccc(C(=O)Nc3ccccn3)cc1)C2=O", "note": "[Example 14a, (R)-4-((8-Cyano-2,5-dioxo-3-(pyridin-3-ylmethyl)-2,3-dihydro-1H-benzo[e][1,4]diazepin-4(5H)-yl)methyl)-N-(pyridin-2-yl)benzamide Hydrochloride]", "IC50": "< 100"}
    ]}
  ]
}
